Test results from patent publication US11547698B2, “Aryl hydrocarbon receptor modulators” (ARIAGEN, INC., priority 2016, dated 2023).
pEC50: −log10 of the molar value.

Biological target: T1, AhR receptor (Homo sapiens, UniProt P35869)
T1 construct: cells of reporter gene expressing natural (Human Hepatoma Huh-7) AhR receptor; endogenous in cells; host or cells: Human hepatoma Huh-7 reporter cells (firefly luciferase under a receptor-specific response element)
T1 sequence (P35869 11-848): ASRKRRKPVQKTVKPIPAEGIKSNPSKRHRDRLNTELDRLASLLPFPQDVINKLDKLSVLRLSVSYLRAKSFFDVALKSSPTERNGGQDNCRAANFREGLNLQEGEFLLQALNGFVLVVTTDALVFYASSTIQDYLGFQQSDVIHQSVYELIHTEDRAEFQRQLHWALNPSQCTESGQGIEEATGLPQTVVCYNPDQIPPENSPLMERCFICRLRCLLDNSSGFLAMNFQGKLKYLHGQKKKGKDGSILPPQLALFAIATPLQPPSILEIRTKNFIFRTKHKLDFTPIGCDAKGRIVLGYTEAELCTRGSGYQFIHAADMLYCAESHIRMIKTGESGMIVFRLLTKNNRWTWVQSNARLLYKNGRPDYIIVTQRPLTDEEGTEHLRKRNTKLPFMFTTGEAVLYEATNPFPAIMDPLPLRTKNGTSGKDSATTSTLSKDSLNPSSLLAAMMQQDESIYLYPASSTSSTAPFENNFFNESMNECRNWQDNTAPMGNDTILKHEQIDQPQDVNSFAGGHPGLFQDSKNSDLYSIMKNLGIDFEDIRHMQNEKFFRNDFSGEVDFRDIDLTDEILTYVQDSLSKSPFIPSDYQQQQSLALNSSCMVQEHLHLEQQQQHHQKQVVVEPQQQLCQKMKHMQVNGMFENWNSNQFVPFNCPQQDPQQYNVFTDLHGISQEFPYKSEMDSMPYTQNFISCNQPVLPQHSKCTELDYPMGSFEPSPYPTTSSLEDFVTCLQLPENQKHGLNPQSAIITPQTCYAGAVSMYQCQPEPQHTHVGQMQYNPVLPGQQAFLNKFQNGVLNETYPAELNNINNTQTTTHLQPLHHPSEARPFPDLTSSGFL
Assay: AhR agonist assay (luciferase reporter gene cells)
Assay type: cell-based
Settings: reporter cells expressing natural (Human Hepatoma Huh-7) AhR receptor, firefly luciferase, 24 hours at 37° C., 0.1% DMSO
Protocol: Experimental material (plasmids): cells of reporter gene expressing natural (Human Hepatoma Huh-7) AhR receptor, in which reporter vector comprises a functional firefly luciferase gene connecting to an upstream receptor specific genetic response element (GRE).
AhR agonist test includes following three steps:
1, Implanting into cells: a suspension of reporter cell of AhR receptor was prepared in cell recovery medium (CRM; containing 10% charcoal-treated FBS). Then the suspension (100 μL) was assigned to wells in a white culture plate with 96 wells.
2, Before the experiment was about to begin, Master Stocks was diluted to be a processing medium of “concentration of 2 X” by use of appropriate compound screening assay medium (CSM: containing 10% charcoal-treated FBS). Test compounds were diluted with gradient method by use of CSM medium containing 0.2% DMSO to make the final concentration of DMSO in each well of each treatment group being 0.1%. The processing medium was added to culture plate (100 μL/well) on which cells containing reporter gene had been laid in advance in wells by means of double duplicate. The culture plate was placed in an incubator of 37° C. for 24 hours.
3, Fluorescence detection and analysis: after incubation, the processing medium was discarded and luciferase detection reagent was added 100 μL/well. Ave RLU (mean relative fluorescence intensity) of each well and coefficient of variation for each set of experiments were detected. Ratio of Ave RLU^Test Cmpd of treatment groups with test compound of different concentrations to Ave RLU^Vehicle of blank control group can determine activity quantitatively of AhR receptor under influence of test compound of different concentrations and activating multiples as well as EC50.
Processing method of data may refer to J. Biomol.

Row | SMILES | pEC50
1 | COC(=O)c1csc(C(=O)c2cn(COC(=O)[C@@H](N)C(C)C)c3ccccc23)n1 [Compound 1-2] | 6.00 to 9.00
2 | COC(=O)COCn1cc(C(=O)c2nc(C(=O)OC)cs2)c2ccccc21 [Compound 3] | 6.00 to 9.00
3 | COCCOCCOCCOC(=O)n1cc(C(=O)c2nc(C(=O)OC)cs2)c2ccccc21 [Compound 5] | 6.00 to 9.00
4 | COCCOCCOCCOCC(=O)OCn1cc(C(=O)c2nc(C(=O)OC)cs2)c2ccccc21 [Compound 6] | 6.00 to 9.00
5 | COCCOCCOCCOCC(=O)OCC(=O)OCn1cc(C(=O)c2nc(C(=O)OC)cs2)c2ccccc21 [Compound 7] | 6.00 to 9.00
6 | COC(=O)c1nsc(C(=O)c2c[nH]c3ccccc23)n1 [Compound 8] | 5.00 to 6.00
7 | CC(C)c1nc(C(=O)c2c[nH]c3ccccc23)cs1 [Compound 9] | 6.00 to 9.00
8 | COC(=O)c1ccc(C(=O)c2c[nH]c3ccccc23)n1C [Compound 12] | 6.00 to 9.00
9 | COC(=O)c1csc(C(=O)c2c[nH]c3ccccc23)c1 [Compound 15] | 4.00 to 5.00
10 | COC(=O)c1ccc(C(=O)c2c[nH]c3ccccc23)nc1 [Compound 18] | 5.00 to 6.00
11 | CC(C)c1csc(C(=O)c2c[nH]c3ccccc23)n1 [Compound 21] | 6.00 to 9.00
12 | O=C(c1nc(-c2ccccn2)cs1)c1c[nH]c2ccccc12 [Compound 22] | 6.00 to 9.00
13 | COC(=O)c1c[nH]c(C(=O)c2c[nH]c3ccccc23)n1 [Compound 23] | 6.00 to 9.00
14 | COC(=O)CNC(=O)c1csc(C(=O)c2c[nH]c3ccccc23)n1 [Compound 27] | 6.00 to 9.00
15 | COC(=O)c1csc(Cc2c[nH]c3ccccc23)n1 [Compound 28] | 4.00 to 5.00
16 | COC(=O)c1nnc(C(=O)c2c[nH]c3ccccc23)o1 [Compound 34] | 5.00 to 6.00
17 | O=C(c1nc(-c2nnn[nH]2)cs1)c1c[nH]c2ccccc12 [Compound 35] | 5.00 to 6.00
18 | O=C(c1nc(-c2nnc[nH]2)cs1)c1c[nH]c2ccccc12 [Compound 36] | 6.00 to 9.00
19 | COC(=O)c1csc(C(=O)c2cn(CO)c3ccccc23)n1 [Compound 37] | 6.00 to 9.00
20 | COC(=O)c1csc(C(=O)c2cn(C3OC(COC(C)=O)C(OC(C)=O)C(OC(C)=O)C3OC(C)=O)c3ccccc23)n1 (stereo not shown) [Compound 38-1] | 6.00 to 9.00
21 | COC(=O)c1csc(C(=O)c2cn(C3OC(COC(C)=O)C(OC(C)=O)C(OC(C)=O)C3OC(C)=O)c3ccccc23)n1 (stereo not shown) [Compound 38-2] | 6.00 to 9.00
22 | O=C(c1nc(-c2cnccn2)cs1)c1c[nH]c2ccccc12 [Compound 39] | 6.00 to 9.00
23 | O=C(c1nc(-c2ccco2)cs1)c1c[nH]c2ccccc12 [Compound 40] | 6.00 to 9.00
24 | O=C(c1nc(C2CC2)cs1)c1c[nH]c2ccccc12 [Compound 41] | 6.00 to 9.00
25 | Nc1nc(-c2csc(C(=O)c3c[nH]c4ccccc34)n2)cs1 [Compound 44] | 6.00 to 9.00

More lines, now with the values ahead:

Row | pEC50 | SMILES
26 | 6.00 to 9.00 | COC(=O)c1csc(C(=O)c2cn(COC(=O)[C@@H](N)C(C)(C)C)c3ccccc23)n1 [Compound 2-2]
27 | 6.00 to 9.00 | COC(=O)c1csc(C(=O)c2cn(C(=O)[C@@H](N)C(C)C)c3ccccc23)n1 [Compound 4-2]
28 | 6.00 to 9.00 | COC(=O)C1CSC(C(=O)c2c[nH]c3ccc(OC)cc23)=N1 (stereo not shown) [Compound 19-1]
29 | 6.00 to 9.00 | COC(=O)c1csc(C(=O)c2c[nH]c3ccc(OC)cc23)n1 [Compound 19-2]
30 | 5.00 to 6.00 | CO/N=C(/c1nc(C(=O)OC)cs1)c1c[nH]c2ccccc12 [Compound 25-1]
31 | 5.00 to 6.00 | CO/N=C(\c1nc(C(=O)OC)cs1)c1c[nH]c2ccccc12 [Compound 25-2]
32 | 5.00 to 6.00 | COC(=O)c1csc(/C(=N/O)c2c[nH]c3ccccc23)n1 [Compound 26-1]
33 | 5.00 to 6.00 | COC(=O)c1csc(/C(=N\O)c2c[nH]c3ccccc23)n1 [Compound 26-2]
34 | 6.00 to 9.00 | COC(=O)[C@@H]1COC(c2csc(C(=O)c3c[nH]c4ccccc34)n2)=N1 [Compound 30-1]
35 | 6.00 to 9.00 | COC(=O)c1coc(-c2csc(C(=O)c3c[nH]c4ccccc34)n2)n1 [Compound 30-2]
36 | 6.00 to 9.00 | O=C(c1nc(C2=NCCS2)cs1)c1c[nH]c2ccccc12 [Compound 31-1]
37 | 6.00 to 9.00 | O=C(c1nc(-c2nccs2)cs1)c1c[nH]c2ccccc12 [Compound 31-2]
38 | 6.00 to 9.00 | COC(=O)C1CSC(c2csc(C(=O)c3c[nH]c4ccccc34)n2)=N1 (stereo not shown) [Compound 32-1]
39 | 6.00 to 9.00 | COC(=O)c1csc(-c2csc(C(=O)c3c[nH]c4ccccc34)n2)n1 [Compound 32-2]
40 | 6.00 to 9.00 | O=C(c1nc(C2=NCCO2)cs1)c1c[nH]c2ccccc12 [Compound 33-1]
41 | 6.00 to 9.00 | O=C(c1nc(-c2ncco2)cs1)c1c[nH]c2ccccc12 [Compound 33-2]
42 | 6.00 to 9.00 | COC(=O)c1csc(C(=O)c2cn(C3OC(COC(C)=O)C(O)C(O)C3O)c3ccccc23)n1 (stereo not shown) [Compound 38-3]
43 | 6.00 to 9.00 | COC(=O)c1csc(C(=O)c2cn(C3OC(CO)C(O)C(O)C3O)c3ccccc23)n1 (stereo not shown) [Compound 38-4]
44 | 6.00 to 9.00 | CC(C)[C@H](NC(=O)OC(C)(C)C)C(=O)n1cc(C(=O)c2nc(-c3nccs3)cs2)c2ccccc21 [Compound 42-1]
45 | 6.00 to 9.00 | CC(C)[C@H](N)C(=O)n1cc(C(=O)c2nc(-c3nccs3)cs2)c2ccccc21 [Compound 42-2]
46 | 6.00 to 9.00 | O=C(c1nc(-c2c[nH]cn2)cs1)c1c[nH]c2ccccc12 [Compound 43-2]
